Experimental findings from patent publication US8729078B2, “Inhibitors of bruton's tyrosine kinase” (Hoffmann-La Roche Inc., priority 2011, dated 2014) are described below.

In the experiment the target is Btk (Homo sapiens (Human), UniProt Q06187). Description: Bruton's Tyrosine Kinase (Btk) inhibition assay (FRET BTK). Type of experiment: biochemical.
Chain of Btk (Q06187 whole entry): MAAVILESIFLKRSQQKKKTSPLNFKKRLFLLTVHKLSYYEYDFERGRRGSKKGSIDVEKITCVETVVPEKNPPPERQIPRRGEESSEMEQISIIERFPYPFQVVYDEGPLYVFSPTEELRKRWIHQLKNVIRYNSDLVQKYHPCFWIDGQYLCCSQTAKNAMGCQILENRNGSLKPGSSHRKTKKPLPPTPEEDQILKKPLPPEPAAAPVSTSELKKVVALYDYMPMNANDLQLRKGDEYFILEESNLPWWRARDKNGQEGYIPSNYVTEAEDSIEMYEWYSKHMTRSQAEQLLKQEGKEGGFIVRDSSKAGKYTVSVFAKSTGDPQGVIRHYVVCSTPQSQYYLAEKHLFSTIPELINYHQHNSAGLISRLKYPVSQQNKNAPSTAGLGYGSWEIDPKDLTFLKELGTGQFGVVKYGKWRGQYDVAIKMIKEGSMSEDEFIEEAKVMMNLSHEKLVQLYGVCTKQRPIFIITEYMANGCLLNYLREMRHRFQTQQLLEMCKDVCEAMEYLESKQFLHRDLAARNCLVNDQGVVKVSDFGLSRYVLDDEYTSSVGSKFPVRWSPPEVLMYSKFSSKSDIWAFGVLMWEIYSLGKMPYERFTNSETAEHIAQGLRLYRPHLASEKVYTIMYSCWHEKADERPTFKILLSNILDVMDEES

As a reminder, the IC50 is the point on the concentration scale where inhibition reaches its midpoint. The low end stands for inhibition by little substance, the high end for a need for much substance. In turn, `CCOc1ccc(-c2ccc3c(C(N)=O)cn(-c4cccc(-n5ncc6cc(C(C)(C)C)cc(F)c6c5=O)c4CO)c3n2)cn1` [Compound I-45, 1-[3-(6-tert-Butyl-8-fluoro-1-oxo-1H-phthalazin-2-yl)-2-hydroxymethyl-phenyl]-6-(6-ethoxy-pyridin-3-yl)-1H-pyrrolo[2,3-b]pyridine-3-carboxylic acid amide] displayed an IC50 of 11 nM.
`CC(C)(C)c1cc(F)c2c(=O)n(-c3cccc(-n4cc(C(N)=O)c(Nc5ccc(F)cn5)n4)c3CO)ncc2c1` [Compound I-30, 1-[3-(6-tert-Butyl-8-fluoro-1-oxo-1H-phthalazin-2-yl)-2-hydroxymethyl-phenyl]-3-(5-fluoro-pyridin-2-ylamino)-1H-pyrazole-4-carboxylic acid amide] returned an IC50 of 0.24 nM.
For `CC(C)(C)c1cc(F)c2c(=O)n(-c3cccc(-n4cc(C(N)=O)c5ccc(-c6ccccc6F)nc54)c3CO)ncc2c1` [Compound I-46, 1-[3-(6-tert-Butyl-8-fluoro-1-oxo-1H-phthalazin-2-yl)-2-hydroxymethyl-phenyl]-6-(2-fluoro-phenyl)-1H-pyrrolo[2,3-b]pyridine-3-carboxylic acid amide] the value was 14.3 nM; for `CC(C)(C)c1cc(F)c2c(=O)n(-c3cccc(-n4cc(C(N)=O)c5ccc(C(O)CO)nc54)c3CO)ncc2c1` (stereo not shown) [Compound I-49, 1-[3-(6-tert-Butyl-8-fluoro-1-oxo-1H-phthalazin-2-yl)-2-hydroxymethyl-phenyl]-6-(1,2-dihydroxy-ethyl)-1H-pyrrolo[2,3-b]pyridine-3-carboxylic acid amide], 13.9 nM; for `CC(C)(C)c1cc(F)c2c(=O)n(-c3cccc(-n4cc(C(N)=O)c5ccc(N6CCS(=O)(=O)CC6)nc54)c3CO)ncc2c1` [Compound I-50, 1-[3-(6-tert-Butyl-8-fluoro-1-oxo-1H-phthalazin-2-yl)-2-hydroxymethyl-phenyl]-6-(1,1-dioxo-1λ^6-thiomorpholin-4-yl)-1H-pyrrolo[2,3-b]pyridine-3-carboxylic acid amide], 12.7 nM.
`Cc1ccc(Nc2nn(-c3cccc(-n4ncc5cc(C(C)(C)C)cc(F)c5c4=O)c3CO)cc2C(N)=O)nc1` [Compound I-33, 1-[3-(6-tert-Butyl-8-fluoro-1-oxo-1H-phthalazin-2-yl)-2-hydroxymethyl-phenyl]-3-(5-methyl-pyridin-2-ylamino)-1H-pyrazole-4-carboxylic acid amide] registered an IC50 of 0.24 nM.
As for `CC(C)(C)c1cc(F)c2c(=O)n(-c3cccc(-n4cc(C(N)=O)c(Nc5cnccn5)n4)c3CO)ncc2c1` [Compound I-29, 1-[3-(6-tert-Butyl-8-fluoro-1-oxo-1H-phthalazin-2-yl)-2-hydroxymethyl-phenyl]-3-(pyrazin-2-ylamino)-1H-pyrazole-4-carboxylic acid amide], the IC50 was found to be 0.43 nM.
`Cc1cc(Nc2nn(-c3cccc(-n4ncc5cc(C(C)(C)C)ccc5c4=O)c3CO)cc2C(N)=O)nn1C` [Compound I-34, 1-[3-(6-tert-Butyl-1-oxo-1H-phthalazin-2-yl)-2-hydroxymethyl-phenyl]-3-(1,5-dimethyl-1H-pyrazol-3-ylamino)-1H-pyrazole-4-carboxylic acid amide] had an IC50 of 0.51 nM.
Compound `CC(C)(C)c1cc(F)c2c(=O)n(-c3cccc(-n4cc(C(N)=O)c(Nc5ccc(C(F)(F)F)cn5)n4)c3CO)ncc2c1` [Compound I-32, 1-[3-(6-tert-Butyl-8-fluoro-1-oxo-1H-phthalazin-2-yl)-2-hydroxymethyl-phenyl]-3-(5-trifluoromethyl-pyridin-2-ylamino)-1H-pyrazole-4-carboxylic acid amide] registered a 50% inhibitory concentration (IC50) of 0.57 nM.
The compound `Cn1ccc(Nc2nn(-c3cccc(-n4ncc5cc(C(C)(C)C)cc(F)c5c4=O)c3CO)cc2C(N)=O)n1` [Compound I-28, 1-[3-(6-tert-Butyl-8-fluoro-1-oxo-1H-phthalazin-2-yl)-2-hydroxymethyl-phenyl]-3-(1-methyl-1H-pyrazol-3-ylamino)-1H-pyrazole-4-carboxylic acid amide] yielded a 50% inhibitory concentration (IC50) of 0.22 nM.
For `CC(C)(C)c1ccc2c(=O)n(-c3cccc(-n4cc(C(N)=O)c(Nc5cnccn5)n4)c3CO)ncc2c1` [Compound I-36, 1-[3-(6-tert-Butyl-1-oxo-1H-phthalazin-2-yl)-2-hydroxymethyl-phenyl]-3-(pyrazin-2-ylamino)-1H-pyrazole-4-carboxylic acid amide], the IC50 came out at 0.83 nM.
Regarding `CC(C)(C)c1cc(F)c2c(=O)n(-c3cccc(-n4cc(C(N)=O)cn4)c3)ncc2c1` [Compound I-56, 1-[3-(6-tert-Butyl-8-fluoro-1-oxo-1H-phthalazin-2-yl)-phenyl]-1H-pyrazole-4-carboxylic acid amide], the IC50 was determined as 3700 nM.
For the compound `CC(C)(C)c1cc(F)c2c(=O)n(-c3cccc(-n4cc(C(N)=O)c5ccc(-c6ccccc6Cl)nc54)c3CO)ncc2c1` [Compound I-47, 1-[3-(6-tert-Butyl-8-fluoro-1-oxo-1H-phthalazin-2-yl)-2-hydroxymethyl-phenyl]-6-(2-chloro-phenyl)-1H-pyrrolo[2,3-b]pyridine-3-carboxylic acid amide], half-maximal inhibition (IC50) required 28.4 nM.
The compound `CC(C)(C)c1cc(F)c2c(=O)n(-c3cccc(-n4cc(C(N)=O)cn4)c3CO)ncc2c1` [Compound I-41, 1-[3-(6-tert-Butyl-8-fluoro-1-oxo-1H-phthalazin-2-yl)-2-hydroxymethyl-phenyl]-1H-pyrazole-4-carboxylic acid amide] yielded an IC50 of 268 nM.
`CC(C)(C)c1cc(F)c2c(=O)n(-c3cccc(-n4cc(C(N)=O)c(Nc5ccc(C#N)cn5)n4)c3CO)ncc2c1` [Compound I-39, 1-[3-(6-tert-Butyl-8-fluoro-1-oxo-1H-phthalazin-2-yl)-2-hydroxymethyl-phenyl]-3-(5-cyano-pyridin-2-ylamino)-1H-pyrazole-4-carboxylic acid amide]: 0.18 nM corresponded to half-maximal inhibition (IC50).
On to `CC(C)(C)c1cc(F)c2c(=O)n(-c3cccc(-n4cc(C(N)=O)c(Nc5ccc(S(C)(=O)=O)cn5)n4)c3CO)ncc2c1` [Compound I-38, 1-[3-(6-tert-Butyl-8-fluoro-1-oxo-1H-phthalazin-2-yl)-2-hydroxymethyl-phenyl]-3-(5-methanesulfonyl-pyridin-2-ylamino)-1H-pyrazole-4-carboxylic acid amide], for which half-maximal inhibition (IC50) required 0.17 nM.
To `CC(C)(CN1CCC1)Oc1ccc(Nc2nn(-c3cccc(-n4ncc5cc(C(C)(C)C)cc(F)c5c4=O)c3CO)cc2C(N)=O)nc1` [Compound I-24, 3-[5-(2-Azetidin-1-yl-1,1-dimethyl-ethoxy)-pyridin-2-ylamino]-1-[3-(6-tert-butyl-8-fluoro-1-oxo-1H-phthalazin-2-yl)-2-hydroxymethyl-phenyl]-1H-pyrazole-4-carboxylic acid amide] belongs 0.18 nM.
For `CN1CCn2nc(Nc3nn(-c4cccc(-n5ncc6cc(C(C)(C)C)cc(F)c6c5=O)c4CO)cc3C(N)=O)cc2C1` [Compound I-25, 1-[3-(6-tert-Butyl-8-fluoro-1-oxo-1H-phthalazin-2-yl)-2-hydroxymethyl-phenyl]-3-(5-methyl-4,5,6,7-tetrahydro-pyrazolo[1,5-a]pyrazin-2-ylamino)-1H-pyrazole-4-carboxylic acid amide], the IC50 was 0.09 nM.
Take `CC(C)(C)c1ccc2c(=O)n(-c3cccc(-n4cc(C(N)=O)c(Nc5ccccn5)n4)c3CO)ncc2c1` [Compound I-54, 1-[3-(6-tert-Butyl-1-oxo-1H-phthalazin-2-yl)-2-hydroxymethyl-phenyl]-3-(pyridin-2-ylamino)-1H-pyrazole-4-carboxylic acid amide]: the IC50 was 0.95 nM.
`CC(=O)c1ccc(Nc2nn(-c3cccc(-n4ncc5cc(C(C)(C)C)ccc5c4=O)c3CO)cc2C(N)=O)cc1` [Compound I-53, 3-(4-Acetyl-phenylamino)-1-[3-(6-tert-butyl-1-oxo-1H-phthalazin-2-yl)-2-hydroxymethyl-phenyl]-1H-pyrazole-4-carboxylic acid amide] showed a half-maximal inhibitory concentration (IC50) of 0.12 nM.
Turning to `Cc1ccc(Nc2nn(-c3cccc(-n4ncc5cc(C(C)(C)C)ccc5c4=O)c3CO)cc2C(N)=O)nc1` [Compound I-37, 1-[3-(6-tert-Butyl-1-oxo-1H-phthalazin-2-yl)-2-hydroxymethyl-phenyl]-3-(5-methyl-pyridin-2-ylamino)-1H-pyrazole-4-carboxylic acid amide], half-maximal inhibition (IC50) was put at 1.13 nM.
`CN(C)Cc1ccc(Nc2nn(-c3cccc(-n4ncc5cc(C(C)(C)C)ccc5c4=O)c3CO)cc2C(N)=O)nc1` [Compound I-55, 1-[3-(6-tert-Butyl-1-oxo-1H-phthalazin-2-yl)-2-hydroxymethyl-phenyl]-3-(5-dimethylaminomethyl-pyridin-2-ylamino)-1H-pyrazole-4-carboxylic acid amide] had an IC50 of 0.39 nM.
